The NIST ThermoML archive (doi:10.1016/j.fluid.2015.03.048)

Assay: xn = mol fraction of the nth substance listed
Settings: 303.15 K, 100 kPa, Liquid; for viscosity: Capillary tube (Ostwald / Ubbelohde) method; for excess molar volume: Direct dilatometry; for speed of sound: Frequency=3 MHz, Sing-around technique in a fixed-path interferometer; for mass density: Pycnometric method

Clc1ccccc1Cl [1,2-dichlorobenzene] + CC(=O)N(C)C
Settings | excess molar volume [m3/mol] | mass density [kg/m3] | speed of sound [m/s] | viscosity [mPa·s]
x2 = 0.0664 | – | 1275.7 | 1263 | –
x2 = 0.0805 | -3.6e-08 | – | – | 1.294
x2 = 0.1017 | – | 1263.13 | 1276 | –
x2 = 0.1224 | -5e-08 | – | – | 1.29
x2 = 0.1344 | – | 1251.49 | 1284 | –
x2 = 0.1605 | -6e-08 | – | – | 1.283
x2 = 0.1841 | – | 1233.77 | 1298 | –
x2 = 0.2175 | -7.5e-08 | – | – | 1.277
x2 = 0.2229 | – | 1219.92 | 1307 | –
x2 = 0.2611 | -8.4e-08 | – | – | 1.276
x2 = 0.2821 | – | 1198.76 | 1319 | –
x2 = 0.3261 | -9.1e-08 | – | – | 1.261
x2 = 0.4095 | – | 1152.99 | 1344 | –
x2 = 0.4319 | -9.2e-08 | – | – | 1.253
x2 = 0.4585 | – | 1135.37 | 1353 | –
x2 = 0.4607 | -8.8e-08 | – | – | 1.24
x2 = 0.5105 | -8.1e-08 | – | – | 1.232
x2 = 0.5742 | – | 1093.68 | 1377 | –
x2 = 0.6242 | -5.5e-08 | – | – | 1.225
x2 = 0.6565 | – | 1064.03 | 1393 | –
x2 = 0.7019 | -3.4e-08 | – | – | 1.218
x2 = 0.7168 | – | 1042.36 | 1402 | –
x2 = 0.7571 | -1.8e-08 | – | – | 1.211
x2 = 0.7764 | – | 1020.96 | 1413 | –
x2 = 0.8105 | -5e-09 | – | – | 1.201
x2 = 0.822 | – | 1004.63 | 1419 | –
x2 = 0.8505 | 2e-09 | – | – | 1.112
x2 = 0.9177 | – | 970.54 | 1435 | –
x2 = 0.9321 | 7e-09 | – | – | 0.908

Cc1ccccc1[N+](=O)[O-] [2-nitrotoluene] + CC(=O)N(C)C
Settings | excess molar volume [m3/mol] | mass density [kg/m3] | speed of sound [m/s] | viscosity [mPa·s]
x2 = 0.0824 | – | 1135.81 | 2046 | –
x2 = 0.1025 | 1.4e-08 | – | – | 1.905
x2 = 0.124 | – | 1126.98 | 2006 | –
x2 = 0.1501 | – | 1121.45 | 1978 | –
x2 = 0.1527 | 2e-08 | – | – | 1.877
x2 = 0.1784 | – | 1115.46 | 1956 | –
x2 = 0.1835 | 2.5e-08 | – | – | 1.857
x2 = 0.2165 | 2.8e-08 | – | – | 1.835
x2 = 0.2318 | – | 1104.13 | 1897 | –
x2 = 0.2579 | – | 1098.58 | 1874 | –
x2 = 0.2775 | 3.5e-08 | – | – | 1.788
x2 = 0.3067 | 4e-08 | – | – | 1.763
x2 = 0.3103 | – | 1087.46 | 1817 | –
x2 = 0.3637 | – | 1076.12 | 1773 | –
x2 = 0.3641 | 4.7e-08 | – | – | 1.715
x2 = 0.4133 | – | 1065.58 | 1734 | –
x2 = 0.4211 | 5.3e-08 | – | – | 1.663
x2 = 0.466 | – | 1054.4 | 1696 | –
x2 = 0.4727 | 5.8e-08 | – | – | 1.613
x2 = 0.5262 | 6e-08 | – | – | 1.559
x2 = 0.5465 | – | 1037.36 | 1650 | –
x2 = 0.6053 | 5.8e-08 | – | – | 1.474
x2 = 0.6694 | – | 1011.4 | 1592 | –
x2 = 0.7204 | 4.5e-08 | – | – | 1.336
x2 = 0.7773 | – | 988.58 | 1547 | –
x2 = 0.8162 | 3.2e-08 | – | – | 1.203
x2 = 0.8701 | – | 968.9 | 1506 | –
x2 = 0.895 | 2e-08 | – | – | 1.074
x2 = 0.9584 | – | 950.18 | 1463 | –
x2 = 0.967 | 7e-09 | – | – | 0.937

Cc1ccccc1Cl [2-chlorotoluene] + CC(=O)N(C)C
Settings | excess molar volume [m3/mol] | mass density [kg/m3] | speed of sound [m/s] | viscosity [mPa·s]
x2 = 0.1 | – | 1059.98 | 1305 | –
x2 = 0.106 | -2e-08 | – | – | 0.884
x2 = 0.1231 | -2.2e-08 | – | – | 0.883
x2 = 0.1527 | – | 1053.19 | 1316 | –
x2 = 0.1854 | -3e-08 | – | – | 0.882
x2 = 0.1862 | – | 1048.87 | 1322 | –
x2 = 0.2241 | -3.5e-08 | 1043.95 | 1330 | 0.881
x2 = 0.2585 | – | 1039.48 | 1337 | –
x2 = 0.2672 | -3.9e-08 | – | – | 0.88
x2 = 0.3057 | -4.3e-08 | – | – | 0.879
x2 = 0.3232 | – | 1031.07 | 1350 | –
x2 = 0.3545 | – | 1026.99 | 1356 | –
x2 = 0.3762 | -4.9e-08 | – | – | 0.878
x2 = 0.4095 | -5.1e-08 | – | – | 0.877
x2 = 0.4673 | – | 1012.24 | 1378 | –
x2 = 0.503 | – | 1007.54 | 1384 | –
x2 = 0.5255 | -5.5e-08 | – | – | 0.876
x2 = 0.5483 | – | 1001.55 | 1391 | –
x2 = 0.561 | -5.5e-08 | – | – | 0.875
x2 = 0.6052 | -5.2e-08 | – | – | 0.874
x2 = 0.6722 | – | 985.14 | 1407 | –
x2 = 0.7214 | -4.2e-08 | – | – | 0.873
x2 = 0.7275 | – | 977.79 | 1415 | –
x2 = 0.7625 | – | 973.13 | 1416 | –
x2 = 0.7712 | -3.6e-08 | – | – | 0.872
x2 = 0.8021 | -3.2e-08 | – | – | 0.871
x2 = 0.8525 | – | 961.13 | 1428 | –
x2 = 0.8795 | -2.3e-08 | – | – | 0.869

Cc1cccc([N+](=O)[O-])c1 [3-nitrotoluene] + CC(=O)N(C)C
Settings | excess molar volume [m3/mol] | mass density [kg/m3] | speed of sound [m/s] | viscosity [mPa·s]
x2 = 0.0678 | – | 1133.63 | 2077 | –
x2 = 0.0851 | 1.8e-08 | – | – | 1.76
x2 = 0.1256 | – | 1121.68 | 2039 | –
x2 = 0.1552 | 3e-08 | – | – | 1.752
x2 = 0.1998 | – | 1106.36 | 1958 | –
x2 = 0.242 | 4.2e-08 | – | – | 1.71
x2 = 0.2449 | – | 1097.04 | 1906 | –
x2 = 0.291 | – | 1087.34 | 1857 | –
x2 = 0.2931 | 4.9e-08 | – | – | 1.686
x2 = 0.3451 | 5.4e-08 | – | – | 1.646
x2 = 0.3485 | – | 1075.63 | 1802 | –
x2 = 0.395 | – | 1066.03 | 1763 | –
x2 = 0.4062 | 5.9e-08 | – | – | 1.603
x2 = 0.455 | 6.2e-08 | – | – | 1.568
x2 = 0.4577 | – | 1053.07 | 1729 | –
x2 = 0.4919 | – | 1046.01 | 1699 | –
x2 = 0.5191 | 6.5e-08 | – | – | 1.519
x2 = 0.5429 | – | 1035.49 | 1676 | –
x2 = 0.5532 | 6.6e-08 | – | – | 1.492
x2 = 0.5935 | – | 1025.05 | 1656 | –
x2 = 0.603 | 6.6e-08 | – | – | 1.451
x2 = 0.6512 | 6.5e-08 | – | – | 1.408
x2 = 0.6596 | – | 1011.39 | 1632 | –
x2 = 0.708 | – | 1001.42 | 1616 | –
x2 = 0.7125 | 6.3e-08 | – | – | 1.348
x2 = 0.7561 | 5.9e-08 | – | – | 1.3
x2 = 0.7751 | – | 987.57 | 1589 | –
x2 = 0.8151 | 5.1e-08 | – | – | 1.224
x2 = 0.9654 | – | 948.44 | 1473 | –
x2 = 0.9727 | 1.2e-08 | – | – | 0.935

Cc1cccc(Cl)c1 [3-chlorotoluene] + CC(=O)N(C)C
Settings | excess molar volume [m3/mol] | mass density [kg/m3] | speed of sound [m/s] | viscosity [mPa·s]
x2 = 0.0671 | – | 1063.49 | 1298 | –
x2 = 0.0838 | -1e-08 | – | – | 0.783
x2 = 0.1003 | – | 1059.19 | 1307 | –
x2 = 0.1242 | -1.4e-08 | – | – | 0.786
x2 = 0.1481 | – | 1053.01 | 1317 | –
x2 = 0.1735 | – | 1049.73 | 1322 | –
x2 = 0.1811 | -2e-08 | – | – | 0.789
x2 = 0.2107 | -2.3e-08 | – | – | 0.805
x2 = 0.2255 | – | 1042.98 | 1333 | –
x2 = 0.2658 | – | 1037.75 | 1343 | –
x2 = 0.2702 | -2.7e-08 | – | – | 0.811
x2 = 0.3152 | -3e-08 | – | – | 0.817
x2 = 0.3343 | – | 1028.85 | 1356 | –
x2 = 0.3595 | – | 1025.57 | 1362 | –
x2 = 0.3897 | -3.5e-08 | – | – | 0.823
x2 = 0.4165 | -3.6e-08 | – | – | 0.828
x2 = 0.4436 | – | 1014.58 | 1378 | –
x2 = 0.4865 | – | 1008.96 | 1385 | –
x2 = 0.5035 | -3.7e-08 | – | – | 0.832
x2 = 0.5465 | -3.6e-08 | – | – | 0.837
x2 = 0.5673 | – | 998.38 | 1399 | –
x2 = 0.6251 | -3.4e-08 | – | – | 0.841
x2 = 0.6638 | – | 985.69 | 1412 | –
x2 = 0.7042 | – | 980.38 | 1416 | –
x2 = 0.7152 | -2.8e-08 | – | – | 0.846
x2 = 0.7517 | -2.5e-08 | – | – | 0.85
x2 = 0.7822 | – | 970.1 | 1424 | –
x2 = 0.8204 | -1.9e-08 | – | – | 0.855
x2 = 0.9182 | – | 952.18 | 1440 | –
x2 = 0.9345 | -9e-09 | – | – | 0.86
